Assay results as given in patent US8685977B2, “Chemical compounds” (Pfizer Limited, priority 2010, dated 2014).

Molecular target: T1, Nav1.7 (or SCN9A) channel (Homo sapiens, UniProt Q15858)
T1 construct: expressed in transfected cells
Assay: Nav1.7 PatchXpress 7000 automated electrophysiology assay (HEK cells stably expressing hSCN9A)
Assay type: cell-based
Conditions: voltage-clamped at V1/2 of inactivation, read-out: Nav1.7 EIC50
Procedure: The ability of the compounds of formula (I) to block the Nav1.7 (or SCN9A) channel was measured using the assays described below.
Human Embryonic Kidney (HEK) cells were transfected with an hSCN9A construct using lipofectamine reagent (Invitrogen), using standard techniques. Cells stably expressing the hSCN9A constructs were identified by their resistance to G-418 (400 μg/ml). Clones were screened for expression using the whole-cell voltage-clamp technique.
HEK cells stably transfected with hSCN9A were maintained in DMEM medium supplemented with 10% heat-inactivated fetal bovine serum and 400 μg/ml G-418 in an incubator at 37° C. with a humidified atmosphere of 10% CO2. For HTS, cells were harvested from flasks by trypsinization and replated in an appropriate multi-well plate (typically 96 or 384 wells/plate) such that confluence would be achieved within 24 hours of plating. For electrophysiological studies, cells were removed from the culture flask by brief trypsinization and re-plated at low density onto glass cover slips. Cells were typically used for electrophysiological experiments within 24 to 72 hours after plating.
Cover slips containing HEK cells expressing hSCN9A were placed in a bath on the stage of an inverted microscope and perfused (approximately 1 ml/minutes) with extracellular solution of the following composition: 138 mM NaCl, 2 mM CaCl2, 5.4 mM KCl, 1 mM MgCl2, 10 mM glucose, and 10 mM HEPES, pH 7.4, with NaOH. […] The osmolarity of the extracellular and intracellular solutions was 300 mOsm/kg and 295 mOsm/kg, respectively. All recordings were made at room temperature (22-24° C.) using AXOPATCH 200B amplifiers and PCLAMP software (Axon Instruments, Burlingame, Calif.).
HEK cells stably transfected with hSCN9A were viewed under Hoffman contrast optics and placed in front of an array of flow pipes emitting either control or compound-containing extracellular solutions. All compounds were dissolved in dimethyl sulfoxide to make 10 mM stock solutions, which were then diluted into extracellular solution to attain the final concentrations desired. […] The voltage-dependence of inactivation was determined by applying a series of depolarizing prepulses (8 sec long in 10 mV increments) from a negative holding potential. The voltage was then immediately stepped to 0 mV to assess the magnitude of the sodium current. Currents elicited at 0 mV were plotted as a function of prepulse potential to allow estimation of the voltage at which 50% of the channels were inactivated (midpoint of inactivation or V1/2). Compounds were tested for their ability to inhibit hSCN9A sodium channels by activating the channel with a 20 msec voltage step to 0 mV following an 8 second conditioning prepulse to the empirically determined V1/2. Compound effect (% inhibition) was determined by difference in current amplitude before and after application of test compounds. For ease of comparison, “estimated IC-50” (EIC50) values were calculated from single point electrophysiology data by the following equation, (tested concentration, uM)×(100-% inhibition/% inhibition). Inhibition values <20% and >80% were excluded from the calculation.
Electrophysiological assays were conducted with PatchXpress 7000 hardware and associated software (Molecular Devices Corp). All assay buffers and solutions were identical to those used in conventional whole-cell voltage clamp experiments described above. hSCN9A cells were grown as above to 50%-80% confluency and harvested by trypsinization. Trypsinized cells were washed and resuspended in extracellular buffer at a concentration of 1×10^6 cells/ml. The onboard liquid handling facility of the PatchXpress was used for dispensing cells and application of test compounds. Determination of the voltage midpoint of inactivation was as described for conventional whole-cell recordings. Cells were then voltage-clamped to the empirically determined V1/2 and current was activated by a 20 msec voltage step to 0 mV. […]

T1 sequence (Q15858 whole entry): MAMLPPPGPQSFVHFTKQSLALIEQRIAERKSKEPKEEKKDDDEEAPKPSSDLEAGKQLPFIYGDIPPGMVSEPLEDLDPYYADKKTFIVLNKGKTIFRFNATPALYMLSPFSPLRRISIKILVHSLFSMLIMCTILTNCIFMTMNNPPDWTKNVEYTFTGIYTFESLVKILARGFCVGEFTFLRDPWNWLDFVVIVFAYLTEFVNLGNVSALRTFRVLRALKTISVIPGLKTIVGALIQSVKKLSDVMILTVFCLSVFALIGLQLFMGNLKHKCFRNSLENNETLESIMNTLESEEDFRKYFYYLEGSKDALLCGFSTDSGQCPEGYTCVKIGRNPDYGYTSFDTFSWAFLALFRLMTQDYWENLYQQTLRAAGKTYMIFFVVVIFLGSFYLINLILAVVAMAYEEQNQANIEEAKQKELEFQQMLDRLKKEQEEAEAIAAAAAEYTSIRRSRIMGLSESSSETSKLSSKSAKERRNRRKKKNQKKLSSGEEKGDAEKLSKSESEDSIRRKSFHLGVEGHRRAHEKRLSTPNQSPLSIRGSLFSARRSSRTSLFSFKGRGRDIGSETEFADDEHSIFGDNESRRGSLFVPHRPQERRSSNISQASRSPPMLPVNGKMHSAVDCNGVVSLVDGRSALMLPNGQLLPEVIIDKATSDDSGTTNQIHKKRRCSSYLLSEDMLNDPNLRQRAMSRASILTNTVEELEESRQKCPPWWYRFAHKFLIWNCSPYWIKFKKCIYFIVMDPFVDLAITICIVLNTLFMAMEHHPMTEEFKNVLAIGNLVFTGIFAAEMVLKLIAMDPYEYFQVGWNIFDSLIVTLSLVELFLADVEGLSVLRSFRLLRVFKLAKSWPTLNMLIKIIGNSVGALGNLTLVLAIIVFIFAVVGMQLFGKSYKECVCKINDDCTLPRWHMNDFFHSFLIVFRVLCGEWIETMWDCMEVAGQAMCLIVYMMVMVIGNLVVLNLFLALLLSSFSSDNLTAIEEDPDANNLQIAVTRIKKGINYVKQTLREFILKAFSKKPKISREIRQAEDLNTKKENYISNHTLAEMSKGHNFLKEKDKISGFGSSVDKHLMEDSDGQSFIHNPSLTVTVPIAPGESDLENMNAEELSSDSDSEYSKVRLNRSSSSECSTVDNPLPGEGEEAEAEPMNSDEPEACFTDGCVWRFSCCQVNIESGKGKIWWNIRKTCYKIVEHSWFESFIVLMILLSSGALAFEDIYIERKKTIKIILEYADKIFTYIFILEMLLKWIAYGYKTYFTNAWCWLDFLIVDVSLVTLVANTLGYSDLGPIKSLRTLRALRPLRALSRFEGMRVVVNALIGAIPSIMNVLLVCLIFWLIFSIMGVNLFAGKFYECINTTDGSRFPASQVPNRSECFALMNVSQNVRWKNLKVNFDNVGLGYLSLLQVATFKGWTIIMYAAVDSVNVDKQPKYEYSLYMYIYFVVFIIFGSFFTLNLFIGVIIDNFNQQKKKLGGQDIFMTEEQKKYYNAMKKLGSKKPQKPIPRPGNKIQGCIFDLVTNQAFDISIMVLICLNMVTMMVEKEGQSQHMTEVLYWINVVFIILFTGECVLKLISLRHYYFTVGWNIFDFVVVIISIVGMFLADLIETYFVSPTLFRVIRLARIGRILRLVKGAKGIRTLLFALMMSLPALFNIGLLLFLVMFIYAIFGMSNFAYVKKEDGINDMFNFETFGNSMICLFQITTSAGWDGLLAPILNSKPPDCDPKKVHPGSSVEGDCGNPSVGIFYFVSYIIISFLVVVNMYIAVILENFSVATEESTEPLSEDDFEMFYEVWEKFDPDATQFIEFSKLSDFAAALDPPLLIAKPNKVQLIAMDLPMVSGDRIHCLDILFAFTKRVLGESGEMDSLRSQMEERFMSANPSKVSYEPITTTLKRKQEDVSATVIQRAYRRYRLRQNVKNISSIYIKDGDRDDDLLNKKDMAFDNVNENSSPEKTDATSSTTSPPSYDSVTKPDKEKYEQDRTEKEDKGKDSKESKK

Row | IC50 | SMILES
1 | 7.5 µM | Cc1cccc(Oc2ccc(C(=O)NS(C)(=O)=O)cc2)c1 [Example 254, 4-(3-methylphenoxy)-N-(methylsulfonyl)benzamide]
2 | 3.3 µM | CS(=O)(=O)NC(=O)c1ccc(Oc2ccc(C#N)c(C(F)(F)F)c2)cc1 [Example 310, 4-[4-cyano-3-(trifluoromethyl)phenoxy]-N-(methylsulfonyl)benzamide]
3 | 3.5 µM | CS(=O)(=O)NC(=O)c1ccc(Sc2ccc(Cl)c(Cl)c2)cc1 [Example 317, 4-[(3,4-Dichlorophenyl)sulfanyl]-N-(methylsulfonyl)benzamide]
4 | > 3 µM | CS(=O)(=O)NC(=O)c1cc(F)c(Oc2c(F)cccc2F)cc1F [Example 96, 4-(2,6-difluorophenoxy)-2,5-difluoro-N-(methylsulfonyl)benzamide]
5 | > 3 µM | CS(=O)(=O)NC(=O)c1cc(F)c(Oc2cc(Cl)ccc2Cl)cc1F [Example 105, 4-(2,5-dichlorophenoxy)-2,5-difluoro-N-(methylsulfonyl)benzamide]
6 | 18 µM | Cc1cc(Cl)ccc1Oc1ccc(C(=O)NS(C)(=O)=O)cc1 [Example 206, 4-(4-chloro-2-methylphenoxy)-N-(methylsulfonyl)benzamide]
7 | 0.85 µM | CC(C)S(=O)(=O)NC(=O)c1ccc(Oc2ccc(Cl)c(C(F)(F)F)c2)cc1 [Example 76, 4-(4-chloro-3-(trifluoromethyl)phenoxy)-N-(isopropylsulfonyl)benzamide]
8 | 4.8 µM | CCOc1ccc(Oc2ccc(C(=O)NS(C)(=O)=O)cc2C#N)cc1 [Example 265, 3-cyano-4-(4-ethoxyphenoxy)-N-(methylsulfonyl)benzamide]
9 | > 3 µM | COc1cc(C(=O)NS(C)(=O)=O)ccc1Cc1ccc(Cl)c(Cl)c1 [Example 322, 4-(3,4-dichlorobenzyl)-3-methoxy-N-(methylsulfonyl)benzamide]
10 | 4 µM | COc1cc(C(=O)NS(C)(=O)=O)ccc1Oc1ccc(Cl)c(C(F)(F)F)c1 [Example 59, 4-[4-chloro-3-(trifluoromethyl)phenoxy]-3-methoxy-N-(methylsulfonyl)benzamide]
11 | > 10 µM | CCS(=O)(=O)NC(=O)c1ccc(Oc2ccc(C)cc2)cc1 [Example 308, N-(ethylsulfonyl)-4-(4-methylphenoxy)benzamide]
12 | > 1 µM | CCc1cc(F)ccc1Oc1ccc(C(=O)NS(C)(=O)=O)c(F)c1 [Example 19, 4-(2-ethyl-4-fluorophenoxy)-2-fluoro-N-(methylsulfonyl)benzamide]
13 | 0.25 µM | CCc1cc(C(=O)NS(C)(=O)=O)ccc1Oc1ccc(Cl)c(Cl)c1 [Example 4, 4-(3,4-Dichlorophenoxy)-3-ethyl-N-(methylsulfonyl)benzamide]
14 | 0.097 µM | CS(=O)(=O)NC(=O)c1cc(Cl)c(Oc2ccc(Cl)cc2)cc1F [Example 295, 5-chloro-4-(4-chlorophenoxy)-2-fluoro-N-(methylsulfonyl)benzamide]
15 | 0.5 µM | CS(=O)(=O)NC(=O)c1cc(F)c(Oc2ccc(C(F)(F)F)c(Cl)c2)cc1F [Example 33, 4-(3-chloro-4-(trifluoromethyl)phenoxy)-2,5-difluoro-N-(methylsulfonyl)benzamide]
16 | 12 µM | Cc1ccc(Oc2ccc(C(=O)NS(C)(=O)=O)cc2)cc1C [Example 167, 4-(3,4-dimethylphenoxy)-N-(methylsulfonyl)benzamide]
17 | > 3 µM | Cn1nccc1-c1cc(Cl)ccc1Oc1ccc(C(=O)NS(C)(=O)=O)cc1C#N [Example 303, 4-[4-chloro-2-(1-methyl-1H-pyrazol-5-yl)phenoxy]-3-cyano-N-(methylsulfonyl)benzamide]
18 | 0.97 µM | COc1cc(C(=O)NS(C)(=O)=O)ccc1Oc1ccc(Cl)c(Cl)c1 [Example 10, 4-(3,4-dichlorophenoxy)-3-methoxy-N-(methylsulfonyl)benzamide]

Row | IC50 | SMILES
19 | > 3 µM | Cc1ccc(C)c(Oc2cc(F)c(C(=O)NS(C)(=O)=O)cc2F)c1 [Example 127, 4-(2,5-dimethylphenoxy)-2,5-difluoro-N-(methylsulfonyl)benzamide]
20 | 0.71 µM | CS(=O)(=O)NC(=O)c1ccc(Oc2cccc(-c3ccccc3)c2)c(C#N)c1 [Example 272, 4-(biphenyl-3-yloxy)-3-cyano-N-(methylsulfonyl)benzamide]
21 | > 3 µM | COc1cc(Cl)ccc1Oc1ccc(C(=O)NS(C)(=O)=O)cc1C#N [Example 63, 4-(4-chloro-2-methoxyphenoxy)-3-cyano-N-(methylsulfonyl)benzamide]
22 | 9.7 µM | CCS(=O)(=O)NC(=O)c1ccc(Oc2ccccc2)cc1 [Example 307, N-(ethylsulfonyl)-4-phenoxybenzamide]
23 | 0.53 µM | CS(=O)(=O)NC(=O)c1cc(F)c(Oc2ccc(Cl)c(C(F)(F)F)c2)cc1Cl [Example 77, 2-chloro-4-(4-chloro-3-(trifluoromethyl)phenoxy)-5-fluoro-N-(methylsulfonyl)benzamide]
24 | > 1 µM | COc1cc(C(F)(F)F)ccc1Oc1cc(F)c(C(=O)NS(C)(=O)=O)cc1F [Example 74, 2,5-difluoro-4-(2-methoxy-4-(trifluoromethyl)phenoxy)-N-(methylsulfonyl)benzamide]
25 | > 1 µM | CS(=O)(=O)NC(=O)c1cc(F)c(Oc2cccc(Cl)c2F)cc1F [Example 149, 4-(3-chloro-2-fluorophenoxy)-2,5-difluoro-N-(methylsulfonyl)benzamide]
26 | 0.43 µM | CCC(C)S(=O)(=O)NC(=O)c1cc(F)c(Oc2ccc(Cl)c(C(F)(F)F)c2)cc1F (centres unmarked) [Example 58, N-(sec-butylsulfonyl)-4-[4-chloro-3-(trifluoromethyl)phenoxy]-2,5-difluorobenzamide]
27 | 20 µM | Cc1cc(C)cc(Oc2ccc(C(=O)NS(C)(=O)=O)cc2)c1 [Example 174, 4-(3,5-dimethylphenoxy)-N-(methylsulfonyl)benzamide]
28 | 8.7 µM | CS(=O)(=O)NC(=O)c1ccc(Oc2cccc(F)c2)c(C#N)c1 [Example 284, 3-cyano-4-(3-fluorophenoxy)-N-(methylsulfonyl)benzamide]
29 | 6.2 µM | COc1cc(F)ccc1Oc1cc(F)c(C(=O)NS(C)(=O)=O)cc1F [Example 69, 2,5-difluoro-4-(4-fluoro-2-methoxyphenoxy)-N-(methylsulfonyl)benzamide]
30 | > 10 µM | CS(=O)(=O)NC(=O)c1ccc(Oc2ccccc2Cl)cc1 [Example 164, 4-(2-chlorophenoxy)-N-(methylsulfonyl)benzamide]
31 | > 1 µM | COc1cc(C)ccc1Oc1cc(F)c(C(=O)NS(C)(=O)=O)cc1F [Example 85, 2,5-difluoro-4-(2-methoxy-4-methylphenoxy)-N-(methylsulfonyl)benzamide]
32 | > 3 µM | CS(=O)(=O)NC(=O)c1ccc(Oc2ccc(C(F)(F)F)cc2-c2ccnnc2)cc1 [Example 50, N-(methylsulfonyl)-4-(2-(pyridazin-4-yl)-4-(trifluoromethyl)phenoxy)benzamide]
33 | 1.2 µM | CS(=O)(=O)NC(=O)c1ccc(Oc2ccc(Cl)cc2)c(F)c1 [Example 229, 4-(4-chlorophenoxy)-3-fluoro-N-(methylsulfonyl)benzamide]
34 | 4.2 µM | Cc1ccc(Oc2ccc(C(=O)NS(C)(=O)=O)cc2F)cc1 [Example 217, 3-fluoro-4-(4-methylphenoxy)-N-(methylsulfonyl)benzamide]
35 | 1.9 µM | Cc1cc(Oc2ccc(C(=O)NS(C)(=O)=O)cc2)ccc1Cl [Example 170, 4-(4-chloro-3-methylphenoxy)-N-(methylsulfonyl)benzamide]
